Where a name gives a salt, the structure may show the parent alone.
What was measured:
[1] = Inhibition of pig TNAP at pH 10.4 by UV-visible spectrophotometric assay; design: species or system Sus scrofa
[2] = Inhibition of pig TNAP at pH 7.8 by UV-visible spectrophotometric assay; design: species or system Sus scrofa

IC50 [1]	IC50 [2]	SMILES
> 800 µM	> 800 µM	c1cc(-c2cn3ccsc3n2)cs1
> 800 µM	> 800 µM	c1cc(-c2cn3c(n2)SCC3)cs1
> 800 µM	> 800 µM	C1=C(c2ccsc2)N2CCN=C2S1
42 µM	84 µM	C1=CN2CC(c3ccsc3)N=C2S1 (racemic)
408 µM	192 µM	c1cc(C2CN3CCSC3=N2)cs1 (racemic)
331 µM	260 µM	C1=CN2CC(c3cccs3)N=C2S1 (racemic)
> 800 µM	> 800 µM	c1csc(C2CN3CCSC3=N2)c1 (racemic)
93 µM	78 µM	c1ccc([C@H]2CN3CCSC3=N2)cc1 [LEVAMISOLE HYDROCHLORIDE]

Source: ChEMBL document CHEMBL1759989, “Synthesis and evaluation of thiophenyl derivatives as inhibitors of alkaline phosphatase” (Bioorg Med Chem Lett, 2011)
